Inhibition data for five compounds are collected here from patent publication US20250120967A1, “TYROSINE KINASES INHIBITORS AND USES THEREOF” (GREAT NOVEL THERAPEUTICS BIOTECH & MEDICALS CORPORATION, priority 2023, published 2025).

Common to all, as to assay: Tyrosine kinase inhibition assay
Assay type in all cases: biochemical
Holding throughout (conditions): single concentration 1.0 μM, read-out: percent inhibition

Assay [1] addresses T1, EPHA1 (Homo sapiens, UniProt P21709).
T1 sequence (P21709 26-976): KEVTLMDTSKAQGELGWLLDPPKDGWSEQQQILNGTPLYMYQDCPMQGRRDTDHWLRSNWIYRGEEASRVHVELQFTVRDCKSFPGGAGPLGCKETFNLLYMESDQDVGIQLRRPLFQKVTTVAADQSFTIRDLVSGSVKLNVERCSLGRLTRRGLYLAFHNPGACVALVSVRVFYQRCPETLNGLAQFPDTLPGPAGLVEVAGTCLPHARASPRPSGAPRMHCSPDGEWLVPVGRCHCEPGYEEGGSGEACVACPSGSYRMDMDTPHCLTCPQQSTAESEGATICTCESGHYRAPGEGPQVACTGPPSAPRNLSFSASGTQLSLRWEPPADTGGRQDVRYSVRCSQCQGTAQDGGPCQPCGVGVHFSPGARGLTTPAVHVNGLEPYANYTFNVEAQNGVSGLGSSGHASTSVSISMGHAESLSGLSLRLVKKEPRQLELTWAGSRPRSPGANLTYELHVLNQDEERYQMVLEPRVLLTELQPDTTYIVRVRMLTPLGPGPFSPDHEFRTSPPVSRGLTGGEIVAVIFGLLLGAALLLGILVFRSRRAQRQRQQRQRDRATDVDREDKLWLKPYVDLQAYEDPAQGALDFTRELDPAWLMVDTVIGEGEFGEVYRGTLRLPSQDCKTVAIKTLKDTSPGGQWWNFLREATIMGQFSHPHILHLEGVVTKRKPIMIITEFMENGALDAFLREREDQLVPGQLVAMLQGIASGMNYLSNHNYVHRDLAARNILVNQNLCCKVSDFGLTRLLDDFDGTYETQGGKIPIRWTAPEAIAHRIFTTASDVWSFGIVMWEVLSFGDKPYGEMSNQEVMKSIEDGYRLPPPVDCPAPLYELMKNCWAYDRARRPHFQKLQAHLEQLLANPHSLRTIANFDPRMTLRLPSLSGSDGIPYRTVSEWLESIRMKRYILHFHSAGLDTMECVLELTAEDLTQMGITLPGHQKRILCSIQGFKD
In a few lines: (§1)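 Values are percent inhibition at 1.0 μM compound, with inhibition above 80% defined as a hit. Peptide substrate phosphorylation was assessed by Z′-LYTE at apparent-Km ATP in HEPES pH 7.5 buffer containing MgCl2, EGTA and BRIJ-35.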

Assay [2] addresses T2, EPHB4 (Homo sapiens, UniProt P54760).
T2 sequence (P54760 16-987): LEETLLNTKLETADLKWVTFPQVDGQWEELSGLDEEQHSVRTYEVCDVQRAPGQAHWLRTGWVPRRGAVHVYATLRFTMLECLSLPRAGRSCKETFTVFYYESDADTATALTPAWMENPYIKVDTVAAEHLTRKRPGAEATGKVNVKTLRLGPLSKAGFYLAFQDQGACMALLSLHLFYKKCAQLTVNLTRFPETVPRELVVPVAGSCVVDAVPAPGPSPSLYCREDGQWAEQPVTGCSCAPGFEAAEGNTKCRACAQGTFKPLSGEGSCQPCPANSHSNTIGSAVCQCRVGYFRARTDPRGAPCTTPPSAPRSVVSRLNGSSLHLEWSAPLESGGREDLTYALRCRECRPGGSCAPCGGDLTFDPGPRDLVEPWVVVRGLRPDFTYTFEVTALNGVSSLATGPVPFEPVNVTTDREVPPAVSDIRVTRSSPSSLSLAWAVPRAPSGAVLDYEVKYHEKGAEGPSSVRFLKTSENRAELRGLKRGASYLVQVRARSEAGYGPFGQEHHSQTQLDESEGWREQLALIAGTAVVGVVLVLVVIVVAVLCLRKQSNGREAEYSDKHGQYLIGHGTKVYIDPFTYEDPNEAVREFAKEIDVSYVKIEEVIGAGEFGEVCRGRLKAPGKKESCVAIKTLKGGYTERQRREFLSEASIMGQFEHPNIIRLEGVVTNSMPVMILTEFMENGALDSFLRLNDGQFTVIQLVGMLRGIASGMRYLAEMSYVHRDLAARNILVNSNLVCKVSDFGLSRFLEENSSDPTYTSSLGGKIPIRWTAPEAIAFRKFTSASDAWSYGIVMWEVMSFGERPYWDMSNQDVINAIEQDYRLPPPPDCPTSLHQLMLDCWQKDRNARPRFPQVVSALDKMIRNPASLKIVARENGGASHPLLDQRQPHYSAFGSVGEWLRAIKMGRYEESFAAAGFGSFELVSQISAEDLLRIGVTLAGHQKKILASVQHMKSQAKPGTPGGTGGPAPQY
In a few lines:
as §1

For assay [3], the target named is ERBB2 (HER2) (Homo sapiens, UniProt P04626). In short, it runs like this: as §1
The target in assay [4] is FES (FPS) (Homo sapiens, UniProt P07332). In short, it runs like this: as §1
Assay [5] addresses MAPK10 (JNK3) (Homo sapiens, UniProt P53779). In a few lines: as §1

Sequence of MAPK10 (JNK3) (P53779 whole entry): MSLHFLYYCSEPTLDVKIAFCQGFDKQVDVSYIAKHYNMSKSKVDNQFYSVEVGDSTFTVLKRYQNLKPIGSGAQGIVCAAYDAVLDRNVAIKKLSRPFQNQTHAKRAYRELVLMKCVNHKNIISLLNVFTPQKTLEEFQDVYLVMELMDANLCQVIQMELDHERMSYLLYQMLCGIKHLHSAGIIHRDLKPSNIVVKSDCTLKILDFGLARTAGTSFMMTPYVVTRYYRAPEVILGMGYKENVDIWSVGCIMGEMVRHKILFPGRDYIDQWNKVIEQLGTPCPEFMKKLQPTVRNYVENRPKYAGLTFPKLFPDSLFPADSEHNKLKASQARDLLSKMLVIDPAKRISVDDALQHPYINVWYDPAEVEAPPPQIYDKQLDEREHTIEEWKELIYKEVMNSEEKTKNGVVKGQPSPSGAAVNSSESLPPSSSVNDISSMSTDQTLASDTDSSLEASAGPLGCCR
Sequence of FES (FPS) (P07332 whole entry): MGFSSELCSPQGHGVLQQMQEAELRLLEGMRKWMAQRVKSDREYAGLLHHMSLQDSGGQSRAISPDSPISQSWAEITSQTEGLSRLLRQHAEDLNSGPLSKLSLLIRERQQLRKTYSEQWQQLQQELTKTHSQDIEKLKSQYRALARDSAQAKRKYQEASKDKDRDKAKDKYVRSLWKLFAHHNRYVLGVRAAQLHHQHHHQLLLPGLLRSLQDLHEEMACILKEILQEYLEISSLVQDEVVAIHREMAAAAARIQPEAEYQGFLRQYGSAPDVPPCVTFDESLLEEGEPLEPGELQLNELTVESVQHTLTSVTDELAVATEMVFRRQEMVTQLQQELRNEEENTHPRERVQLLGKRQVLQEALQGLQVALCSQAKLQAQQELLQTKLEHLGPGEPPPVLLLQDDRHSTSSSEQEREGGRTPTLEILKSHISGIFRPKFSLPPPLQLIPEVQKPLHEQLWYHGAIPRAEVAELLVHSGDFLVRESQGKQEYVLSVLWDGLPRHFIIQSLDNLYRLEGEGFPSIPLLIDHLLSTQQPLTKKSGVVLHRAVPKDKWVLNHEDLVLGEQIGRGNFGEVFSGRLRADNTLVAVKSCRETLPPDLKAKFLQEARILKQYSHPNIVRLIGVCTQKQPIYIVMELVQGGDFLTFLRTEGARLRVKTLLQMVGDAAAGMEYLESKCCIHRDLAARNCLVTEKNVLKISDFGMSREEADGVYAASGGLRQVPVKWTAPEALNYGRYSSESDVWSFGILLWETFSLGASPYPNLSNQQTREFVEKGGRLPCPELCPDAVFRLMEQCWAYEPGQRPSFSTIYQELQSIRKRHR
Sequence of ERBB2 (HER2) (P04626 23-1255): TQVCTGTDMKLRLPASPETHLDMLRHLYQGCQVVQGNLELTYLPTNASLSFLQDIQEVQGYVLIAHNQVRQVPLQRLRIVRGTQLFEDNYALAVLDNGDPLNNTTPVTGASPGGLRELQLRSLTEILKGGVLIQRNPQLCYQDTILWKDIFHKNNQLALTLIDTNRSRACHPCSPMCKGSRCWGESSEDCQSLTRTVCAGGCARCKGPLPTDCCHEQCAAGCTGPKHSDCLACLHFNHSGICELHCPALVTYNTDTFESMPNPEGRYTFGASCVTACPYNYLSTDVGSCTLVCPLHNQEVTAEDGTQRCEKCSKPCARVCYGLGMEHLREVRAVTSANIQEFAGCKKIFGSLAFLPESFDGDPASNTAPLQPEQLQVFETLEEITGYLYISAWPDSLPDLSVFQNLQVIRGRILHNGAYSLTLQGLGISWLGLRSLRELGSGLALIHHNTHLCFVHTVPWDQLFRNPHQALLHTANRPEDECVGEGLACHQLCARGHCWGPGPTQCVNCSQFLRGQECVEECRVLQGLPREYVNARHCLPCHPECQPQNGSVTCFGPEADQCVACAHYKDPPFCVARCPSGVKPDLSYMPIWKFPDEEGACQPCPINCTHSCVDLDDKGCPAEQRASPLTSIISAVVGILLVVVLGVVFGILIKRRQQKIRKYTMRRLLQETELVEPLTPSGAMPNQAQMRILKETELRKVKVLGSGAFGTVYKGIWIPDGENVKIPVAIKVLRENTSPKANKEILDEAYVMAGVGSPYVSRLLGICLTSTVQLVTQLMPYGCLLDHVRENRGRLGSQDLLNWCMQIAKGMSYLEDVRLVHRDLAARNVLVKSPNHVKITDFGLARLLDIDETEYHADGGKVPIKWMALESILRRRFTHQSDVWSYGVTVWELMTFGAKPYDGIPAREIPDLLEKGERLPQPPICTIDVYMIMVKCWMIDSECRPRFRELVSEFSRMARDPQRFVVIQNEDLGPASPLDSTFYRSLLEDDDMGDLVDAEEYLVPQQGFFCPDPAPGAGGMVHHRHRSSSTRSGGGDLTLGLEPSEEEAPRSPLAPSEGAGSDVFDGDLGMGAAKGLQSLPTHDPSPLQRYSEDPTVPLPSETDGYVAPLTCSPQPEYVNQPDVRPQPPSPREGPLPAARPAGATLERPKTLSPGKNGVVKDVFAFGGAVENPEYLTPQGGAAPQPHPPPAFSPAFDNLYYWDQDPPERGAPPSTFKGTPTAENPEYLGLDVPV

As for `COc1cc2nccc(Oc3ccc(NC(=O)C4(C(=O)Nc5ccc(F)cc5)CC4)cc3)c2cc1OC` [Cabozantinib, reference compound], the inhibition (in general, the relative decrease from the control value, in per cent) at 1 µM is 74% in assay [1]; 93% in assay [2]; 17% in assay [3]; 30% in assay [4]; 3% in assay [5].

Regarding `COc1cc2nccc(Oc3ccc(NC(=O)C4(NC(=O)c5ccc(F)cc5)CC4)cc3F)c2cc1OC` [Cbo-02, N-(1-((4-((6,7-diMethoxyquinolin-4-yl)oxy)-3-fluorophenyl)carbamoyl)cyclopropyl)-4-fluorobenzamide], the inhibition at 1 µM in assay [1] was 29%; in assay [2], 27%; in assay [3] it was 50%; in assay [4] it was 38%; in assay [5] it was 4%.

For `COc1cc2nccc(Oc3ccc(NC(=O)C4(NC(=O)c5ccc(F)cc5)CC4)cc3F)c2cc1Oc1ccc(N)cc1F` [Cbo-10], the inhibition at 1 µM in assay [1] stood at 84%; in assay [2], 50%; in assay [3], 90%; in assay [4], 80%; in assay [5], 8%.

For `COc1cc2nccc(Oc3ccc(NC(=O)C4(NC(=O)c5ccc(F)cc5)CC4)cc3F)c2cc1Oc1c(F)cc(N)cc1F` [Cbo-14], the inhibition at 1 µM in assay [1] was found to be 80%; in assay [2], 76%; in assay [3] it was 90%; in assay [4] it was 78%; in assay [5], 4%.

Take `COc1cc2nccc(Oc3ccc(NC(=O)C4(C(=O)Nc5ccc(F)cc5)CC4)cc3F)c2cc1Oc1ccc(N)cc1F` [Cbo-23]: the inhibition at 1 µM was 96% in assay [1]; 103% in assay [2]; 54% in assay [3]; 58% in assay [4]; -3% in assay [5].
